Experimental data: ChEMBL document CHEMBL3286097, “Dual carbonic anhydrase/matrix metalloproteinase inhibitors incorporating bisphosphonic acid moieties targeting bone tumors” (Bioorg Med Chem Lett, 2014)
The source made the active and inactive calls. No cut-off for these calls is given here.

Columns and labels:
J774 = test: Cytotoxicity against mouse J774 cells assessed as reduction in cell viability; assay type: functional, cell-based
Carbonic anhydrase 2 = Carbonic anhydrase 2 (Homo sapiens, UniProt P00918)
Description: Inhibition of human recombinant carbonic anhydrase 2 pretreated for 15 mins by stopped flow CO2 hydrase assay

Carbonic anhydrase 14 = Carbonic anhydrase 14 (Homo sapiens, UniProt Q9ULX7)
Description: Inhibition of human recombinant carbonic anhydrase 14 pretreated for 15 mins by stopped flow CO2 hydrase assay

Carbonic anhydrase 12 = Carbonic anhydrase 12 (Homo sapiens, UniProt O43570)
Description: Inhibition of human recombinant carbonic anhydrase 12 pretreated for 15 mins by stopped flow CO2 hydrase assay

Carbonic anhydrase 9 = Carbonic anhydrase 9 (Homo sapiens, UniProt Q16790)
Description: Inhibition of human recombinant carbonic anhydrase 9 pretreated for 15 mins by stopped flow CO2 hydrase assay

Carbonic anhydrase 1 [1] = target: T1, Carbonic anhydrase 1 (Homo sapiens, UniProt P00915)
Target sequence in this assay (P00915 whole entry): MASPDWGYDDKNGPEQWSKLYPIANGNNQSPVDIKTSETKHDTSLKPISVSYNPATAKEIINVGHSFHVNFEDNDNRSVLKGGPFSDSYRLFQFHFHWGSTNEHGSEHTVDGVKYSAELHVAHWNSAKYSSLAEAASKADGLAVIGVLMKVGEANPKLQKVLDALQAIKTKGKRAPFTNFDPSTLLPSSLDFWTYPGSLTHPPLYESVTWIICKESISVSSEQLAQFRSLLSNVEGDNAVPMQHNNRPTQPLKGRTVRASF
Description: Inhibition of human recombinant carbonic anhydrase 1 pretreated for 15 mins by stopped flow CO2 hydrase assay

[2] = target: 72 kDa type IV collagenase (Homo sapiens, UniProt P08253)
Carbonic anhydrase 1 [3] = target: T1, Carbonic anhydrase 1; test: Activation of human recombinant carbonic anhydrase 1 pretreated for 15 mins by stopped flow CO2 hydrase assay
Target sequence in this assay (P00915 2-261 limits assumed): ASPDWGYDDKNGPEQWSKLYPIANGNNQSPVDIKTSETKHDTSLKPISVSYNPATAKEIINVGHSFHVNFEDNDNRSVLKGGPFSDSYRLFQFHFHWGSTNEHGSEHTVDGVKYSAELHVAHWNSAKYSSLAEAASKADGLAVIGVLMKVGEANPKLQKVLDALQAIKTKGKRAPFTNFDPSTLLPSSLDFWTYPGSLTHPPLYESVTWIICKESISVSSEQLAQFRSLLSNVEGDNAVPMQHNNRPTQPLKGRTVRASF

Carbonic anhydrase 12, sequence (O43570 whole entry): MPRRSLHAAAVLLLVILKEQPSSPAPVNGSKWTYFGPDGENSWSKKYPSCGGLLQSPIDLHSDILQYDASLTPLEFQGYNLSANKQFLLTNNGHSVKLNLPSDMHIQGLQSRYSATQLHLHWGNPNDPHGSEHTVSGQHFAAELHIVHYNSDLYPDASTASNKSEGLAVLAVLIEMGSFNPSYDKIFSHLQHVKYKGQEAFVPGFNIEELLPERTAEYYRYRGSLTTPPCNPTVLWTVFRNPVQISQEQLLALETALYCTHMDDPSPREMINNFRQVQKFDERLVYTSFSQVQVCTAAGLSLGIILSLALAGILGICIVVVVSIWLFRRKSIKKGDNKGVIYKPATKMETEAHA
Carbonic anhydrase 14, sequence (Q9ULX7 whole entry): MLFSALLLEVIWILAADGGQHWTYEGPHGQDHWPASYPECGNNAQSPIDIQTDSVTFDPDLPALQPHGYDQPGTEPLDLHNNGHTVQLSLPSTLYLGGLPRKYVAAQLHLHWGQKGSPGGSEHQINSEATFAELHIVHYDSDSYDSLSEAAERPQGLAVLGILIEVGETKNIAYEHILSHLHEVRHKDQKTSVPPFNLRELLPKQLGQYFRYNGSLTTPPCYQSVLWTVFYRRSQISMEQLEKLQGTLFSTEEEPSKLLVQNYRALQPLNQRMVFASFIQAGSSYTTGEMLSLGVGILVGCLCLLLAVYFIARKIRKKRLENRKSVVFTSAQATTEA
72 kDa type IV collagenase, sequence (P08253 whole entry): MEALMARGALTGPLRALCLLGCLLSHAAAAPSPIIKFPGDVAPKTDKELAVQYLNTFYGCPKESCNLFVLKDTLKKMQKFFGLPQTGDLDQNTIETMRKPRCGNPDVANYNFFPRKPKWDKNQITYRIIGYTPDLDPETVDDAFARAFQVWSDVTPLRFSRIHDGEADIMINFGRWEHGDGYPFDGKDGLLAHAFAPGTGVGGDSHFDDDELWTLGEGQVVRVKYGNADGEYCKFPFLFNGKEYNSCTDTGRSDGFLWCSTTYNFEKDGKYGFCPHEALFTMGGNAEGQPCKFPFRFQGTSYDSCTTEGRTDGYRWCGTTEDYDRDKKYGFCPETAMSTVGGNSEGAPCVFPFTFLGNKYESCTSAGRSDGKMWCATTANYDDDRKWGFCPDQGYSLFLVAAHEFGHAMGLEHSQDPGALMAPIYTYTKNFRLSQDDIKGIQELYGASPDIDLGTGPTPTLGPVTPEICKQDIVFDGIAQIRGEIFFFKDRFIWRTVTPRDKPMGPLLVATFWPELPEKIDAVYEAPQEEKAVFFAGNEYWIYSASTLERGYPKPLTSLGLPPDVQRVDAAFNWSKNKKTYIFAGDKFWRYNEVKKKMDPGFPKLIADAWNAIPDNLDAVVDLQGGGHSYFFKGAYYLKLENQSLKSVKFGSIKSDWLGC

| SMILES | IC50 (J774) [µM] | IC50 (Carbonic anhydrase 2) [µM] | IC50 (Carbonic anhydrase 14) [µM] | IC50 (Carbonic anhydrase 12) [µM] | IC50 (Carbonic anhydrase 9) [µM] | IC50 (Carbonic anhydrase 1 [1]) [µM] | IC50 [2] [µM] | Activity (Carbonic anhydrase 1 [3]) |
| --- | --- | --- | --- | --- | --- | --- | --- | --- |
| O=P(O)(O)C(NS(=O)(=O)c1ccc(-c2ccccc2)cc1)P(=O)(O)O | 4.9 | 1.41 | 0.729 | 0.386 | 0.347 | 6.8 | – | – |
| O=P(O)(O)C(NS(=O)(=O)c1ccc(Cl)cc1)P(=O)(O)O | – | 6.16 | 6.59 | 0.464 | 0.095 | > 10 | 9.5 | – |
| Cc1ccc(S(=O)(=O)NC(P(=O)(O)O)P(=O)(O)O)cc1 | – | > 100 | 0.541 | 0.461 | 0.2 | > 10 | 18 | – |
| O=P(O)(O)CP(=O)(O)O [MEDRONIC ACID] | – | 1250 | – | – | 860 | – | 49 | Active |
| O=[N+]([O-])c1cccc(S(=O)(=O)NC(P(=O)(O)O)P(=O)(O)O)c1 | – | 3.82 | > 10 | 0.794 | 2.67 | > 10 | 16 | – |
| O=[N+]([O-])c1ccc(-c2ccc(S(=O)(=O)NC(P(=O)(O)O)P(=O)(O)O)cc2)cc1 | 32 | 0.071 | 0.082 | 0.065 | 0.596 | 9.03 | 0.192 | – |
| O=P(O)(O)C(NS(=O)(=O)c1ccccc1)P(=O)(O)O | – | > 100 | 3.31 | 0.855 | 0.397 | > 10 | 15.8 | – |
| O=P(O)(O)C(NS(=O)(=O)c1ccc(Br)cc1)P(=O)(O)O | – | > 10 | 0.898 | 0.062 | 0.234 | > 10 | 4.8 | – |
| O=P(O)(O)C(NS(=O)(=O)c1ccc(-c2cccs2)cc1)P(=O)(O)O | 12 | 0.504 | 0.593 | 0.087 | 0.601 | 6.17 | 0.23 | – |
| COc1ccc(S(=O)(=O)NC(P(=O)(O)O)P(=O)(O)O)cc1 | – | > 10 | 0.516 | 0.376 | 0.09 | > 10 | 19 | – |
| O=[N+]([O-])c1ccc(S(=O)(=O)NC(P(=O)(O)O)P(=O)(O)O)cc1 | – | 1.83 | 0.092 | 0.092 | 0.078 | > 10 | 4.9 | – |
| O=C(NC(P(=O)(O)O)P(=O)(O)O)c1ccc(Br)cc1 | – | > 10 | 6.05 | 0.278 | > 10 | > 10 | 30 | – |
| O=P(O)(O)C(P(=O)(O)O)S(=O)(=O)c1ccc(Br)cc1 | – | > 10 | 6.05 | 0.225 | > 10 | > 10 | 52 | – |
| COc1ccc(-c2ccc(S(=O)(=O)NC(P(=O)(O)O)P(=O)(O)O)cc2)cc1 | 12 | 0.07 | 0.07 | 0.076 | 0.084 | 0.041 | 0.11 | – |
| O=P(O)(O)C(NS(=O)(=O)c1ccc(-c2ccc(Cl)cc2)cc1)P(=O)(O)O | 1.7 | 2.66 | 2.44 | 0.476 | 6.13 | 1.75 | 0.037 | – |
| O=P(O)(O)C(O)(Cn1ccnc1)P(=O)(O)O [ZOLEDRONIC ACID] | 7.8 | – | – | – | – | > 10 | – | – |
